# Measured values: US8461174B2, “Treatment for cutaneous metastases” (3M Innovative Properties Company, priority 2004, dated 2013)
# What was measured:
# [1] = tested on: cutaneous metastasis of Her2/neu-positive breast cancer (invasive lobular tumor cells); assay: Topical treatment of cutaneous metastasis of breast cancer in a patient (Example 1); assay type: in vivo, human; settings: person one
# Method: (§1) The IRM compound used in the examples is 1-(2-methylpropyl)-1H-imidazo[4,5-c]quinolin-4-amine, formulated as a 5% cream available under the tradename ALDARA (3M Co., St. Paul, Minn.).
# person one with breast cancer (UICC stage pT1c, pN1b1, M0, G2, estrogen-positive, progesterone-positive) developed an axillary recurrence and osteolytic metastases (L2-4) despite axillary dissection and neoadjuvant and adjuvant chemotherapy. The recurrent tumor and metastases were treated with radiation. Nine months later, the breast cancer recurred locally (rpT1c, M1, G2, estrogen-negative, progesterone-negative, Her2/neu-positive) and was treated with trastuzumab and percutaneous radiation. An inflammatory erythema occurred on the upper back (FIG. 1A). On histology, invasive lobular tumor cells (keratin-positive, Her2/neu-positive, ICAM-1-positive) were present (FIGS. 1B-1E.
# (§2) 1-(2-methylpropyl)-1H-imidazo[4,5-c]quinolin-4-amine was administered topically five times per week for six months.
# [2] = tested on: cutaneous metastasis of invasive ductal carcinoma (Her2/neu-negative); assay: Topical treatment of cutaneous metastasis of invasive ductal carcinoma in a patient (Example 2); assay type: in vivo, human; settings: person two; 5% cream (ALDARA) topically five times per week for six months
# Method: as §1
# person two with invasive ductal carcinoma (UICC stage T2, pN1, B2, cM0) that was estrogen-negative, progesterone-negative, and Her2/neu-negative was treated by mastectomy and adjuvant chemotherapy. Infraclavicular and supraclavicular recurrences were treated with γ- and telecobalt radiation, intrarterial and intravenous chemotherapy. A diffuse cutaneous lesion occurred on the scapula that, upon histological examination, contained an infiltrative ductal growth pattern (FIG. 1I).
# as §2
compound,measurement,setting,value
"CC(C)Cn1cnc2c(N)nc3ccccc3c21 [1-(2-methylpropyl)-1H-imidazo[4,5-c]quinolin-4-amine]",skin lesions upon gross examination or histological examination after the treatment period,[1]; 5% cream (ALDARA) topically five times per week for six months,no skin lesions were detected
same,time the patient has remained free of cutaneous metastasis,[1]; after topical treatment five times per week for six months,more than ten months
same,skin biopsy of an affected area after the treatment period,[2],free of carcinoma cells
